Read-outs that look alike come from different tables or passages of the source. Where a SMILES comes first, the peptide text is derived from it. Bridges are numbered along the chain shown (N, C = ends). [ ]: non-standard residue; d: D form. PEG12 = NCCOCCOCCOCCOCCOCCOCCOCCOCCOCCOCCOCCOCCC(=O)O; NMePhe(3-Cl) = CN[C@@H](Cc1cccc(Cl)c1)C(=O)O; NMeW = CN[C@@H](Cc1c[nH]c2ccccc12)C(=O)O; Lys(N3) = [N-]=[N+]=NCCCC[C@H](N)C(=O)O; NMeY = CN[C@@H](Cc1ccc(O)cc1)C(=O)O; NMeF = CN[C@@H](Cc1ccccc1)C(=O)O; Ahp(2) = CCCCC[C@H](N)C(=O)O; PEG4 = NCCOCCOCCOCCOCCC(=O)O; hLys = NCCCCC[C@H](N)C(=O)O
Molecular target: transferrin receptor (hTfR) (Homo sapiens, UniProt P02786)
Sequence (P02786 whole entry): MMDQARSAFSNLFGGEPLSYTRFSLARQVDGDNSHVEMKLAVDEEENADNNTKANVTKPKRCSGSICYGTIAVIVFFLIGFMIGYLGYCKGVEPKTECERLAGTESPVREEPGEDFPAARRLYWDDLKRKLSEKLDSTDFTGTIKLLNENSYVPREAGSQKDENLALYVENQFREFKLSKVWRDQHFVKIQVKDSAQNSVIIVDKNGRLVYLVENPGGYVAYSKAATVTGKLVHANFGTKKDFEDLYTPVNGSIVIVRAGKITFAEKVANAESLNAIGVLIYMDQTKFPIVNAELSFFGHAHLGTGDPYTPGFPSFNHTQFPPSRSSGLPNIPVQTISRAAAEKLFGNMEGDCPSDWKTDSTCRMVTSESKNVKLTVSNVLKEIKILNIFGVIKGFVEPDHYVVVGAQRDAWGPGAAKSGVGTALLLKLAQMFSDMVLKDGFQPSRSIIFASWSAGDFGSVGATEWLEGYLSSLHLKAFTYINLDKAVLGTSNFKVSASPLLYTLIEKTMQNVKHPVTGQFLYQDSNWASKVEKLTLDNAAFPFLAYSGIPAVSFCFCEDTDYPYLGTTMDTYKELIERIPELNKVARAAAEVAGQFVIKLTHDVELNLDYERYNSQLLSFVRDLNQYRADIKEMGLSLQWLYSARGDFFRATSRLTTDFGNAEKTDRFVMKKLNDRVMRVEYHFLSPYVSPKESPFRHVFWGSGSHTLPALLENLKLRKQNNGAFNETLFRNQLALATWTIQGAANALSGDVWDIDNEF
Assay: Intermolecular interaction evaluation test between transferrin receptor (hTfR) and peptide by surface plasmon resonance (SPR)
Type: binding
Method in brief: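 Receptor was Ni-captured and EDC/NHS-fixed on an NTA chip; running buffer HEPES pH 8.0 with NaCl, Tween 20, BSA and 1.0% DMSO.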

[1] = surface plasmon resonance, hTfR, read-out: KD value for hTfR by SPR (class symbol)

Kd [1]	SMILES	further results
	CC[C@H](C)[C@@H]1NC(=O)[C@H](Cc2ccc(OC)cc2)NC(=O)[C@H](Cc2ccc(O)cc2)NC(=O)[C@H](CC(N)=O)NC(=O)[C@H](Cc2c[nH]c3ccccc23)N(C)C(=O)[C@H](C(C)C)NC(=O)[C@H](Cc2cccc(Cl)c2)N(C)C(=O)[C@H](CCC(=O)O)NC(=O)[C@H](C)NC(=O)CSC[C@@H](C(=O)NCC(=O)N[C@@H](CCCCN=[N+]=[N-])C(N)=O)NC(=O)[C@H](Cc2ccc(O)cc2)N(C)C(=O)[C@H](Cc2ccccc2)NC(=O)[C@H](CCC(=O)O)NC(=O)[C@H](CCCNC(=N)N)NC(=O)[C@H]([C@@H](C)CC)NC1=O [compound 232] ({CH2CO}-AE[NMePhe(3-Cl)]V[NMeW]NYY(Me)IIREF[NMeY]CG[Lys(N3)]-NH2; thioether N-15)	Kd (binding to hTfR by SPR, Table 2 peptides, read-out: KD value (SPR) class): 1 to 100 nM
	CCCCC[C@@H]1NC(=O)[C@H](C)NC(=O)CSC[C@@H](C(=O)NCCOCCOCCOCCOCCOCCOCCOCCOCCOCCOCCOCCOCCC(N)=O)NC(=O)[C@H](Cc2ccc(O)cc2)N(C)C(=O)[C@H](Cc2ccc(O)cc2)NC(=O)[C@H](CCCNC(=N)N)NC(=O)[C@H](CCCNC(=N)N)NC(=O)[C@H]([C@@H](C)CC)NC(=O)[C@H]([C@@H](C)CC)NC(=O)[C@H](Cc2ccc(O)cc2)NC(=O)[C@H](Cc2ccc(O)cc2)NC(=O)[C@H](CC(N)=O)NC(=O)[C@H](Cc2c[nH]c3ccccc23)NC(=O)[C@H](C(C)C)NC(=O)[C@H](Cc2ccccc2)N(C)C1=O [compound 130] ({CH2CO}-A[Ahp(2)][NMeF]VWNYYIIRRY[NMeY]C[PEG12]-NH2; thioether N-15)	Kd (SPR, hTfR No. 894 variants with PEG12c linker (Table 2), read-out: KD): 1 to 100 nM
1 to 100 nM	CC[C@H](C)[C@@H]1NC(=O)[C@H](Cc2ccc(OC)cc2)NC(=O)[C@H](Cc2ccc(O)cc2)NC(=O)[C@H](CC(N)=O)NC(=O)[C@H](Cc2c[nH]c3ccccc23)N(C)C(=O)[C@H](C(C)C)NC(=O)[C@H](Cc2cccc(Cl)c2)N(C)C(=O)[C@H](C(C)C)NC(=O)[C@H](C)NC(=O)CSC[C@@H](C(=O)NCC(=O)N[C@H](CCC(=O)O)C(=O)NCC(=O)N[C@H](CCCCN)C(=O)N[C@@H](CO)C(=O)N[C@@H](CO)C(=O)N[C@@H](CS)C(N)=O)NC(=O)[C@H](Cc2ccc(O)cc2)N(C)C(=O)[C@H](Cc2ccccc2)NC(=O)[C@@H](CCCNC(=N)N)NC(=O)[C@H](CCCNC(=N)N)NC(=O)[C@H]([C@@H](C)CC)NC1=O [compound 404] ({CH2CO}-AV[NMePhe(3-Cl)]V[NMeW]NYY(Me)IIR[dR]F[NMeY]CG[dE]G[dK]SSC-NH2; thioether N-15)	
1 to 100 nM	CC[C@H](C)[C@@H]1NC(=O)[C@H](Cc2ccc(OC)cc2)NC(=O)[C@H](Cc2ccc(O)cc2)NC(=O)[C@H](CC(N)=O)NC(=O)[C@H](Cc2c[nH]c3ccccc23)N(C)C(=O)[C@H](C(C)C)NC(=O)[C@H](Cc2cccc(Cl)c2)N(C)C(=O)[C@H](C(C)C)NC(=O)[C@H](C)NC(=O)CSC[C@H](C(N)=O)NC(=O)[C@H](Cc2ccc(O)cc2)N(C)C(=O)[C@H](Cc2ccccc2)NC(=O)[C@@H](CCCNC(=N)N)NC(=O)[C@H](CCCNC(=N)N)NC(=O)[C@H]([C@@H](C)CC)NC1=O [compound 396]	
1 to 100 nM	CC[C@H](C)[C@@H]1NC(=O)[C@H](Cc2ccc(OC)cc2)NC(=O)[C@H](Cc2ccc(O)cc2)NC(=O)[C@H](CC(N)=O)NC(=O)[C@H](Cc2c[nH]c3ccccc23)N(C)C(=O)[C@H](C(C)C)NC(=O)[C@H](Cc2cccc(Cl)c2)N(C)C(=O)[C@H](C(C)C)NC(=O)[C@H](C)NC(=O)CSC[C@@H](C(=O)NCCOCCOCCOCCOCCC(N)=O)NC(=O)[C@H](Cc2ccc(O)cc2)N(C)C(=O)[C@H](Cc2ccccc2)NC(=O)[C@@H](CCCNC(=N)N)NC(=O)[C@H](CCCCCN)NC(=O)[C@H]([C@@H](C)CC)NC1=O [compound 369] ({CH2CO}-AV[NMePhe(3-Cl)]V[NMeW]NYY(Me)II[hLys][dR]F[NMeY]C[PEG4]-NH2; thioether N-15)	
